We go through one compound from article PMC5218480 (PLoS ONE, 2017).

The assay relates to MV-4-11 cells. The assay is described as follows: Gene expression microarray analysis (Affymetrix PrimeView) and GSEA. The assay is classed as cell-based, human. More on the design: RFU PODN (11730768_x_at) / Fold change /veh PODN (11730768_x_at) / RFU LINC00158 (11744669_a_at) / Fold change /veh LINC00158 (11744669_a_at) / RFU DUSP10 (11751237_a_at) / Fold change /veh DUSP10 (11751237_a_at) / RFU ID3 (11757404_x_at) / Fold change /veh ID3 (11757404_x_at) / RFU PLEKHG5 (11737974_s_at) / Fold change /veh PLEKHG5 (11737974_s_at) / RFU LRRC4B (11730491_at) / Fold change /veh LRRC4B (11730491_at) / RFU GIMAP4 (11747438_a_at) / Fold change /veh GIMAP4 (11747438_a_at) / RFU KRT8 (11758183_x_at) / Fold change /veh KRT8 (11758183_x_at) / RFU CNN1 (11734310_a_at) / Fold change /veh CNN1 (11734310_a_at) / RFU VPS37D (11726825_at) / Fold change /veh VPS37D (11726825_at) / RFU C10orf10 (11716522_x_at) / Fold change /veh C10orf10 (11716522_x_at) / RFU KIR2DL2 /// KIR2DL4 /// KIR2DL5A /// KIR2DL5B /// KIR2DS1 /// KIR2DS2 /// KIR2DS3 /// KIR2DS4 /// KIR3DL3 /// KIR3DL3 /// KIR3DS1 (11738374_at) / Fold change /veh KIR2DL2 /// KIR2DL4 /// KIR2DL5A /// KIR2DL5B /// KIR2DS1 /// KIR2DS2 /// KIR2DS3 /// KIR2DS4 /// KIR3DL3 /// KIR3DL3 /// KIR3DS1 (11738374_at) / RFU C1QL1 (11718748_at) / Fold change /veh C1QL1 (11718748_at) / RFU TMPRSS4 (11747572_a_at) / Fold change /veh TMPRSS4 (11747572_a_at) / RFU HAMP (11756126_x_at) / Fold change /veh HAMP (11756126_x_at) / RFU RNFT2 (11725882_a_at) / Fold change /veh RNFT2 (11725882_a_at) / RFU NR4A2 (11747474_a_at) / Fold change /veh NR4A2 (11747474_a_at) / RFU ABCC12 (11746883_a_at) / Fold change /veh ABCC12 (11746883_a_at) / RFU TMEM136 (11760407_x_at) / Fold change /veh TMEM136 (11760407_x_at) / RFU CLDN22 /// WWC2 (11732394_at) / Fold change /veh CLDN22 /// WWC2 (11732394_at) / RFU HLA-DPB1 (11760878_x_at) / Fold change /veh HLA-DPB1 (11760878_x_at) / RFU SPINT1 (11716480_a_at) / Fold change /veh SPINT1 (11716480_a_at) / RFU GAP43 (11754022_s_at) / Fold change /veh GAP43 (11754022_s_at) / RFU A4GNT (11735810_at) / Fold change /veh A4GNT (11735810_at) / RFU PRB3 (11715151_x_at) / Fold change /veh PRB3 (11715151_x_at) / RFU TUBB4B (11761932_at) / Fold change /veh TUBB4B (11761932_at) / RFU CAPN14 (11732068_a_at) / Fold change /veh CAPN14 (11732068_a_at) / RFU TMCC2 (11721928_a_at) / Fold change /veh TMCC2 (11721928_a_at) / RFU IRGQ (11745062_a_at) / Fold change /veh IRGQ (11745062_a_at) / RFU FAM174B (11720279_a_at) / Fold change /veh FAM174B (11720279_a_at) / RFU TMPRSS4 (11748680_a_at) / Fold change /veh TMPRSS4 (11748680_a_at) / RFU FAM212B (11763350_a_at) / Fold change /veh FAM212B (11763350_a_at) / RFU PLEKHG5 (11743358_a_at) / Fold change /veh PLEKHG5 (11743358_a_at) / RFU ZSCAN30 (11745921_a_at) / Fold change /veh ZSCAN30 (11745921_a_at) / RFU CMKLR1 (11741424_a_at) / Fold change /veh CMKLR1 (11741424_a_at) / RFU LOC101060620 /// MAPK8IP1 (11723275_at) / Fold change /veh LOC101060620 /// MAPK8IP1 (11723275_at) / RFU SPTSSB (11747773_x_at) / Fold change /veh SPTSSB (11747773_x_at) / RFU PRSS12 (11739890_at) / Fold change /veh PRSS12 (11739890_at) / RFU BIN1 (11741810_x_at) / Fold change /veh BIN1 (11741810_x_at) / RFU WNT11 (11732464_a_at) / Fold change /veh WNT11 (11732464_a_at) / RFU C10orf10 (11716521_a_at) / Fold change /veh C10orf10 (11716521_a_at) / RFU C5orf56 (11738089_at) / Fold change /veh C5orf56 (11738089_at) / RFU CYB561 (11721691_x_at) / Fold change /veh CYB561 (11721691_x_at) / RFU ANKRD19P (11752326_a_at) / Fold change /veh ANKRD19P (11752326_a_at) / RFU OR2T12 /// OR2T33 /// OR2T8 (11738714_s_at) / Fold change /veh OR2T12 /// OR2T33 /// OR2T8 (11738714_s_at) / RFU VCAN (11748164_a_at) / Fold change /veh VCAN (11748164_a_at) / RFU JSRP1 (11732532_at) / Fold change /veh JSRP1 (11732532_at) / RFU KRTAP10-11 (11738290_x_at) / Fold change /veh KRTAP10-11 (11738290_x_at) / RFU MYO3A (11730013_a_at) / Fold change /veh MYO3A (11730013_a_at) / RFU EBF3 (11725865_a_at) / Fold change /veh EBF3 (11725865_a_at) / RFU CAMK2N1 (11719241_x_at) / Fold change /veh CAMK2N1 (11719241_x_at) / RFU C5orf56 (11738088_a_at) / Fold change /veh C5orf56 (11738088_a_at) / RFU OLFML3 (11715873_a_at) / Fold change /veh OLFML3 (11715873_a_at) / RFU LOC100653217 /// NTM (11731650_a_at) / Fold change /veh LOC100653217 /// NTM (11731650_a_at) / RFU MAPK11 (11762145_a_at) / Fold change /veh MAPK11 (11762145_a_at) / RFU FIZ1 (11724087_x_at) / Fold change /veh FIZ1 (11724087_x_at) / RFU OASL (11726364_x_at) / Fold change /veh OASL (11726364_x_at) / RFU SOX15 (11748057_x_at) / Fold change /veh SOX15 (11748057_x_at) / RFU CD79A (11719716_a_at) / Fold change /veh CD79A (11719716_a_at) / RFU HIST1H1D (11736915_at) / Fold change /veh HIST1H1D (11736915_at) / RFU CASKIN2 (11723855_a_at) / Fold change /veh CASKIN2 (11723855_a_at) / RFU LOC730098 (11760151_x_at) / Fold change /veh LOC730098 (11760151_x_at) / RFU OR4N2 (11742367_at) / Fold change /veh OR4N2 (11742367_at) / RFU PRRT2 (11749266_a_at) / Fold change /veh PRRT2 (11749266_a_at) / RFU SNX32 (11753110_a_at) / Fold change /veh SNX32 (11753110_a_at) / RFU CDHR5 (11726645_a_at) / Fold change /veh CDHR5 (11726645_a_at) / RFU RCAN1 (11760418_a_at) / Fold change /veh RCAN1 (11760418_a_at) / RFU FAM167A (11723789_a_at) / Fold change /veh FAM167A (11723789_a_at) / RFU FAM26E (11764081_at) / Fold change /veh FAM26E (11764081_at) / RFU ISYNA1 (11749810_s_at) / Fold change /veh ISYNA1 (11749810_s_at) / RFU ACY1 (11761880_at) / Fold change /veh ACY1 (11761880_at) / RFU 11764098_at / Fold change /veh 11764098_at / RFU SAMD14 (11745864_x_at) / Fold change /veh SAMD14 (11745864_x_at) / RFU NPB (11741838_a_at) / Fold change /veh NPB (11741838_a_at) / RFU TMPRSS6 (11731388_a_at) / Fold change /veh TMPRSS6 (11731388_a_at) / RFU KRTAP10-2 (11738614_at) / Fold change /veh KRTAP10-2 (11738614_at) / RFU ARHGAP8 /// PRR5-ARHGAP8 (11727945_x_at) / Fold change /veh ARHGAP8 /// PRR5-ARHGAP8 (11727945_x_at) / RFU KRTAP5-7 /// NADSYN1 (11734609_at) / Fold change /veh KRTAP5-7 /// NADSYN1 (11734609_at) / RFU RASL12 (11751679_a_at) / Fold change /veh RASL12 (11751679_a_at) / RFU CDKN2B (11736163_a_at) / Fold change /veh CDKN2B (11736163_a_at) / RFU PRF1 (11729649_at) / Fold change /veh PRF1 (11729649_at) / RFU, ZNF638 /// ZNF638-IT1 / Fold change vs veh, ZNF638 /// ZNF638-IT1 / RFU, PANK3 / Fold change vs veh, PANK3 / RFU, SH3YL1 / Fold change vs veh, SH3YL1 / RFU, ZEB2 / Fold change vs veh, ZEB2 / RFU, NRIP1 / Fold change vs veh, NRIP1 / RFU, PTTG1IP / Fold change vs veh, PTTG1IP / RFU, CAPN2 / Fold change vs veh, CAPN2 / RFU, MED14 / Fold change vs veh, MED14 / RFU, SNORA58 / Fold change vs veh, SNORA58 / RFU, C1orf63 / Fold change vs veh, C1orf63 / RFU, LRRFIP1 / Fold change vs veh, LRRFIP1 / RFU, NDUFAF7 / Fold change vs veh, NDUFAF7 / RFU, SLC12A2 / Fold change vs veh, SLC12A2 / RFU, IBTK / Fold change vs veh, IBTK / RFU, ESF1 / Fold change vs veh, ESF1 / Fold change vs veh, TMEM50B / RFU, TAOK1 / Fold change vs veh, TAOK1 / RFU, ACBD3 / Fold change vs veh, ACBD3 / RFU, TMA16 / Fold change vs veh, TMA16 / RFU, RWDD3 / Fold change vs veh, RWDD3 / RFU, BCAT1 / Fold change vs veh, BCAT1 / RFU, EDEM3 / Fold change vs veh, EDEM3 / RFU, TMEM33 / Fold change vs veh, TMEM33 / RFU, WDR75 / Fold change vs veh, WDR75 / RFU, AHCTF1 / Fold change vs veh, AHCTF1 / RFU, TFRC / Fold change vs veh, TFRC / RFU, ZDHHC17 / Fold change vs veh, ZDHHC17 / RFU, NOM1 / Fold change vs veh, NOM1 / RFU, ARL8B / Fold change vs veh, ARL8B / RFU, ZBTB11 / Fold change vs veh, ZBTB11 / RFU, TAMM41 / Fold change vs veh, TAMM41 / RFU, KIAA1704 /// LOC100996395 / Fold change vs veh, KIAA1704 /// LOC100996395 / RFU, ING1 / Fold change vs veh, ING1 / RFU, TRMT61B / Fold change vs veh, TRMT61B / RFU, FUBP3 / Fold change vs veh, FUBP3 / RFU, TP53 / Fold change vs veh, TP53 / RFU, TNKS2 / Fold change vs veh, TNKS2 / RFU, ZFP14 / Fold change vs veh, ZFP14 / RFU, ACTR2 / Fold change vs veh, ACTR2 / RFU, PPP3R1 / Fold change vs veh, PPP3R1 / RFU, PIK3R1 / Fold change vs veh, PIK3R1 / RFU, HNRNPA1 / Fold change vs veh, HNRNPA1 / RFU, RNF170 / Fold change vs veh, RNF170 / RFU, ZNF28 / Fold change vs veh, ZNF28 / RFU, RNGTT / Fold change vs veh, RNGTT / RFU, OGT / Fold change vs veh, OGT / RFU, BRD1 / Fold change vs veh, BRD1 / RFU, MARS / Fold change vs veh, MARS / RFU, ZNF655 / Fold change vs veh, ZNF655 / RFU, FAHD1 / Fold change vs veh, FAHD1 / RFU, BDP1 / Fold change vs veh, BDP1 / RFU, LRRCC1 / Fold change vs veh, LRRCC1 / RFU, ARID1A / Fold change vs veh, ARID1A / RFU, ZNF146 / Fold change vs veh, ZNF146 / RFU, ZNF330 / Fold change vs veh, ZNF330 / RFU, GPN3 / Fold change vs veh, GPN3 / RFU, C9orf123 / Fold change vs veh, C9orf123 / RFU, N4BP2L2 / Fold change vs veh, N4BP2L2 / RFU, ARFIP1 / Fold change vs veh, ARFIP1 / RFU, FAM179B / Fold change vs veh, FAM179B / RFU, BCL10 / Fold change vs veh, BCL10 / RFU, UHRF1BP1L / Fold change vs veh, UHRF1BP1L / RFU, BET1 / Fold change vs veh, BET1 / RFU, CNOT2 / Fold change vs veh, CNOT2 / RFU, ZNF268 / Fold change vs veh, ZNF268 / Fold change vs veh, ZNF507 / RFU, DGCR2 / Fold change vs veh, DGCR2 / RFU, WDSUB1 / Fold change vs veh, WDSUB1 / Fold change vs veh, HSP90B1 /// MIR3652 / RFU, ADSS / Fold change vs veh, ADSS / RFU, GK / Fold change vs veh, GK / RFU, ZNF148 / Fold change vs veh, ZNF148 / RFU, TAF9 / Fold change vs veh, TAF9 / RFU, SLC1A5 / Fold change vs veh, SLC1A5 / RFU, SLMO2 / Fold change vs veh, SLMO2 / RFU, ABCC4 / Fold change vs veh, ABCC4 / RFU, LOC101060439 /// RAP1B / Fold change vs veh, LOC101060439 /// RAP1B / RFU, RFX7 / Fold change vs veh, RFX7 / RFU, GTPBP10 / Fold change vs veh, GTPBP10 / RFU, CNEP1R1 / Fold change vs veh, CNEP1R1 / RFU, BIVM-ERCC5 /// ERCC5 / Fold change vs veh, BIVM-ERCC5 /// ERCC5 / RFU, ILF3 / Fold change vs veh, ILF3 / RFU 11762660_at / Fold change /veh 11762660_at / RFU VCAN (11757783_s_at) / Fold change /veh VCAN (11757783_s_at) / RFU DDX43 (11728927_at) / Fold change /veh DDX43 (11728927_at) / RFU KRT8 (11758188_x_at) / Fold change /veh KRT8 (11758188_x_at) / RFU NKD1 (11759106_at) / Fold change /veh NKD1 (11759106_at) / RFU SRD5A1 (11742802_a_at) / Fold change /veh SRD5A1 (11742802_a_at) / RFU TPSAB1 /// TPSB2 (11721975_s_at) / Fold change /veh TPSAB1 /// TPSB2 (11721975_s_at) / RFU GSTM3 (11746129_a_at) / Fold change /veh GSTM3 (11746129_a_at) / RFU IL23R (11737362_x_at) / Fold change /veh IL23R (11737362_x_at) / RFU TMEM51 (11727254_a_at) / Fold change /veh TMEM51 (11727254_a_at) / RFU PIWIL2 (11732686_x_at) / Fold change /veh PIWIL2 (11732686_x_at) / RFU ORM1 (11744905_x_at) / Fold change /veh ORM1 (11744905_x_at) / RFU CCDC152 (11743942_at) / Fold change /veh CCDC152 (11743942_at) / RFU ECM1 (11717891_a_at) / Fold change /veh ECM1 (11717891_a_at) / RFU IL23R (11748794_a_at) / Fold change /veh IL23R (11748794_a_at) / RFU TNFAIP8L3 (11732012_x_at) / Fold change /veh TNFAIP8L3 (11732012_x_at) / RFU MBOAT4 (11741988_at) / Fold change /veh MBOAT4 (11741988_at) / RFU 11764193_at / Fold change /veh 11764193_at / RFU TMEM53 (11763286_at) / Fold change /veh TMEM53 (11763286_at) / RFU MAGEB2 (11727129_at) / Fold change /veh MAGEB2 (11727129_at) / RFU TMEM200A (11744735_a_at) / Fold change /veh TMEM200A (11744735_a_at) / RFU CCDC152 (11751479_a_at) / Fold change /veh CCDC152 (11751479_a_at) / RFU FAM211A (11726209_a_at) / Fold change /veh FAM211A (11726209_a_at) / RFU RGS16 (11746705_a_at) / Fold change /veh RGS16 (11746705_a_at) / RFU VCAN (11755009_s_at) / Fold change /veh VCAN (11755009_s_at) / RFU RHOB (11743442_s_at) / Fold change /veh RHOB (11743442_s_at) / RFU RGS16 (11720943_a_at) / Fold change /veh RGS16 (11720943_a_at) / RFU RGS16 (11720944_at) / Fold change /veh RGS16 (11720944_at) / RFU, VPS4B / Fold change vs veh, VPS4B / RFU, CREB1 / Fold change vs veh, CREB1 / RFU, DNAJC13 / Fold change vs veh, DNAJC13 / RFU, GNAQ / Fold change vs veh, GNAQ / RFU, CDK5R1 / Fold change vs veh, CDK5R1 / RFU, ZRANB3 / Fold change vs veh, ZRANB3 / RFU, CUL4A / Fold change vs veh, CUL4A / RFU, CCNY / Fold change vs veh, CCNY / RFU, UFL1 / Fold change vs veh, UFL1 / RFU, COG3 / Fold change vs veh, COG3 / RFU, DIAPH2 / Fold change vs veh, DIAPH2 / RFU, SKA2 / Fold change vs veh, SKA2 / RFU, AFF3 / Fold change vs veh, AFF3 / RFU, LMF1 / Fold change vs veh, LMF1 / RFU, IPO11 / Fold change vs veh, IPO11 / RFU, DFFB / Fold change vs veh, DFFB / RFU, FOXP1 / Fold change vs veh, FOXP1 / RFU, CARD8 / Fold change vs veh, CARD8 / RFU, STRN3 / Fold change vs veh, STRN3 / RFU, ADK / Fold change vs veh, ADK / RFU, RASSF2 / Fold change vs veh, RASSF2 / RFU, WIPF1 / Fold change vs veh, WIPF1 / RFU, LARP1B / Fold change vs veh, LARP1B / RFU, RASA1 / Fold change vs veh, RASA1 / RFU, RB1 / Fold change vs veh, RB1 / RFU, PPFIA1 / Fold change vs veh, PPFIA1 / RFU, MAT2A / Fold change vs veh, MAT2A / RFU, CCT5 / Fold change vs veh, CCT5 / RFU, WDR92 / Fold change vs veh, WDR92 / RFU, CUX1 / Fold change vs veh, CUX1 / RFU, TTC7A / Fold change vs veh, TTC7A / RFU, TMEM135 / Fold change vs veh, TMEM135 / RFU, DEPTOR / Fold change vs veh, DEPTOR / RFU, CPM / Fold change vs veh, CPM / RFU, DNAJB6 / Fold change vs veh, DNAJB6 / RFU, CACNA2D3 / Fold change vs veh, CACNA2D3 / RFU, DTX4 / Fold change vs veh, DTX4 / RFU, TFCP2 / Fold change vs veh, TFCP2 / RFU, GMCL1 /// GMCL1P1 / Fold change vs veh, GMCL1 /// GMCL1P1 / RFU, AEBP2 / Fold change vs veh, AEBP2 / RFU, SNHG1 /// SNORD22 /// SNORD25 /// SNORD26 /// SNORD27 /// SNORD28 /// SNORD29 /// SNORD31 / Fold change vs veh, SNHG1 /// SNORD22 /// SNORD25 /// SNORD26 /// SNORD27 /// SNORD28 /// SNORD29 /// SNORD31 / Fold change (Aza/veh), C12orf56 (ProbeSet 11735607_a_at) / Fold change (ACY-1035/veh), C12orf56 (ProbeSet 11735607_a_at) / Fold change (Aza/veh), FGFR1OP (ProbeSet 11751329_s_at) / Fold change (ACY-1035/veh), FGFR1OP (ProbeSet 11751329_s_at) / Fold change (Aza/veh), VPS36 (ProbeSet 11739960_a_at) / Fold change (ACY-1035/veh), VPS36 (ProbeSet 11739960_a_at) / RFU SYPL1 (11715823_x_at) / Fold change /veh SYPL1 (11715823_x_at) / RFU IGFBP7 (11715501_s_at) / Fold change /veh IGFBP7 (11715501_s_at) / RFU REEP3 (11722064_at) / Fold change /veh REEP3 (11722064_at) / RFU IGLL1 (11728026_x_at) / Fold change /veh IGLL1 (11728026_x_at): dose or concentration left out as unconfirmed. As to conditions: MV-4-11 cells, 48 hours.

For `Nc1ccc(-c2cccs2)cc1NC(=O)c1ccc2c(c1)cc(C1CC1)n2CCN1CCOCC1` [ACY-1035], the “RFU SRD5A1 (11742802_a_at)” value is 49.09 RFU.
